For test [1], the target named is Platelet-derived growth factor receptor alpha (Homo sapiens, UniProt P16234). In words: Inhibition of PDGFRalpha.
Test [2] deals with Ribosomal protein S6 kinase alpha-1 (Homo sapiens) (UniProt Q15418). In words: Inhibition of MAPKAPK-1a at 10 uM.
Test [3] deals with T1, Inhibitor of nuclear factor kappa-B kinase subunit alpha (Homo sapiens, UniProt O15111).
T1 sequence (O15111 whole entry): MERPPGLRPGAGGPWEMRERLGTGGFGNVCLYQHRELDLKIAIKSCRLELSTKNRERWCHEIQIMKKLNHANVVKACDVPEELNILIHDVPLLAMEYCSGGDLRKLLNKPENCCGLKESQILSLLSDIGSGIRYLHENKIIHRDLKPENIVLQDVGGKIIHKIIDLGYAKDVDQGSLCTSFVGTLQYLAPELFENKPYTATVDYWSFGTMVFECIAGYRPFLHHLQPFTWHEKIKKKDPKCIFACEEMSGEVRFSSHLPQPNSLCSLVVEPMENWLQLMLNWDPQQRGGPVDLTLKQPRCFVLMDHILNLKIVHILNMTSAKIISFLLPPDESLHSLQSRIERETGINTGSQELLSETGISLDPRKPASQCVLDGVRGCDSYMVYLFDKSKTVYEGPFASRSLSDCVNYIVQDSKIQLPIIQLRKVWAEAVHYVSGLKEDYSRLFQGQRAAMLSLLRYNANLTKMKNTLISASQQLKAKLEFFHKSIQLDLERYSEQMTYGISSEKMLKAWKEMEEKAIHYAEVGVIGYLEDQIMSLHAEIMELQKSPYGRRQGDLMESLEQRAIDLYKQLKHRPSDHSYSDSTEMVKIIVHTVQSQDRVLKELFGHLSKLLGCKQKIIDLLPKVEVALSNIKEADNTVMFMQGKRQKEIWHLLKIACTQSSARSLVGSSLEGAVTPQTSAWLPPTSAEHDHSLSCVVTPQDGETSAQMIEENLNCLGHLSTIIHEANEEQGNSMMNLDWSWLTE
In words: Inhibition of IKKalpha.

Test [4] has as its target T2, Inhibitor of nuclear factor kappa-B kinase subunit beta (Homo sapiens, UniProt O14920).
T2 sequence (O14920 whole entry): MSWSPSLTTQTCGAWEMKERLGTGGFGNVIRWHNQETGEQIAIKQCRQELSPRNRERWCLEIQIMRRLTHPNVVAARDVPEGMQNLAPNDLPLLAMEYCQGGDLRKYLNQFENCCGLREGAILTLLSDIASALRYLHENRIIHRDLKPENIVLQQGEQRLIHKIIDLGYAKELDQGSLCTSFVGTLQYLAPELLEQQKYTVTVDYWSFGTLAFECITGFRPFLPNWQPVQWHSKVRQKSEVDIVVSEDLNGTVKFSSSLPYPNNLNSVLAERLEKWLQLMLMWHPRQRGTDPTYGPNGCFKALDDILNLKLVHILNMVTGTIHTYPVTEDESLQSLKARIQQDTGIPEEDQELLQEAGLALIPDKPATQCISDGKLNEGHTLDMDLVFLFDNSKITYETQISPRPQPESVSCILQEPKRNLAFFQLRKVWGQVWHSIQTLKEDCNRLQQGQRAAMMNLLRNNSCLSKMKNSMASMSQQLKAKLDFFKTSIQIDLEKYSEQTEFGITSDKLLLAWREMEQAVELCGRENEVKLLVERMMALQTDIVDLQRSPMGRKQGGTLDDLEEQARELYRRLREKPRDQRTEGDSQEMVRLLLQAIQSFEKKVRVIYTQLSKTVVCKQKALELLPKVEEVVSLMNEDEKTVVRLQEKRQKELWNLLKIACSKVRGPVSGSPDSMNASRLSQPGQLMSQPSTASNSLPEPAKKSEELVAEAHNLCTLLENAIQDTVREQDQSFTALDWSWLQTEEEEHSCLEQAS
In words: Inhibition of Flag epitope-tagged IKK-beta preincubated for 5 mins by scintillation proximity assay.

Test [5] concerns the target Tyrosine-protein kinase CSK (Homo sapiens) (UniProt P41240). In words: Inhibition of CSK at 10 uM.
The target of test [6] is T3, Mitogen-activated protein kinase 12 (Homo sapiens) (UniProt P53778).
T3 sequence (whole entry): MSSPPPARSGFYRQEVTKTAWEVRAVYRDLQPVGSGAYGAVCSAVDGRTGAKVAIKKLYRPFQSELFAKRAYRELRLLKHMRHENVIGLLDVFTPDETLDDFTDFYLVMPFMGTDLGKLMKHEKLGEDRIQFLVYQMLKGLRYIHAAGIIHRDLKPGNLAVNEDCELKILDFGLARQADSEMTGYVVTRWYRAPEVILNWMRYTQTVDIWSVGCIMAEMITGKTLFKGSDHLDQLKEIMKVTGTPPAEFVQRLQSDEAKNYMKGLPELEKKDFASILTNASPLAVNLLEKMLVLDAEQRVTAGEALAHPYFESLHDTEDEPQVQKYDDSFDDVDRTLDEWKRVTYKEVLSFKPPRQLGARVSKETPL
In words: Inhibition of p38-gamma at 10 uM.

Another test deals with T4, Ephrin type-A receptor 3 (Homo sapiens, UniProt P29320).
T4 sequence (P29320 whole entry): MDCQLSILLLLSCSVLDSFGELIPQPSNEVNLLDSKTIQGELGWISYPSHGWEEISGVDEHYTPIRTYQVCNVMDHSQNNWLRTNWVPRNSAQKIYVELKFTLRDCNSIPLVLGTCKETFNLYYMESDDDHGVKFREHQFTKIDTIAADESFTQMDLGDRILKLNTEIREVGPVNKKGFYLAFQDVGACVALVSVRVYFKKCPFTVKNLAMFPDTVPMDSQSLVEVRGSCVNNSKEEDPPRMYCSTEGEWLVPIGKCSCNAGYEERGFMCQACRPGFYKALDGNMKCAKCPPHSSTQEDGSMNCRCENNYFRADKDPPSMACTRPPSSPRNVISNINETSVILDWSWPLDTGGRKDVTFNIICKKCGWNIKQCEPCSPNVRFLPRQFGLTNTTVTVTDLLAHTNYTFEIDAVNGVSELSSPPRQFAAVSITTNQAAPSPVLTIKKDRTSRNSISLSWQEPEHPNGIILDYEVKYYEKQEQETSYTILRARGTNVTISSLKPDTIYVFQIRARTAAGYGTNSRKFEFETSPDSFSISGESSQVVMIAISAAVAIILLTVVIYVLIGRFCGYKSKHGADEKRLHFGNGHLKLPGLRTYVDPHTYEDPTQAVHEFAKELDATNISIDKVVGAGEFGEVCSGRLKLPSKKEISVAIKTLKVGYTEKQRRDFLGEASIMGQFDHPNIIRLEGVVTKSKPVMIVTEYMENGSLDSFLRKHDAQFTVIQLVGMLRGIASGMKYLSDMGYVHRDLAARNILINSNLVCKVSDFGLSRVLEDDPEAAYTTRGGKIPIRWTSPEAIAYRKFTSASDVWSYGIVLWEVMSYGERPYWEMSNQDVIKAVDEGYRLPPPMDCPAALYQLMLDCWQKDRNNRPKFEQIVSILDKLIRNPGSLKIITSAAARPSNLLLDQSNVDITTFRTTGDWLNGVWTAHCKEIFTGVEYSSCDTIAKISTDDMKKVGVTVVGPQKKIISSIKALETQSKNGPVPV
In words: Inhibition of Hek.

These results are taken from ChEMBL document CHEMBL1156029, “The discovery of thienopyridine analogues as potent IkappaB kinase beta inhibitors. Part II” (Bioorg Med Chem Lett, 2009).

Calls of active or inactive are those of the source. The rule behind the calls is not given here. Bounds are passed on as bounds.

Chain of Ribosomal protein S6 kinase alpha-1 (Homo sapiens) (Q15418 whole entry): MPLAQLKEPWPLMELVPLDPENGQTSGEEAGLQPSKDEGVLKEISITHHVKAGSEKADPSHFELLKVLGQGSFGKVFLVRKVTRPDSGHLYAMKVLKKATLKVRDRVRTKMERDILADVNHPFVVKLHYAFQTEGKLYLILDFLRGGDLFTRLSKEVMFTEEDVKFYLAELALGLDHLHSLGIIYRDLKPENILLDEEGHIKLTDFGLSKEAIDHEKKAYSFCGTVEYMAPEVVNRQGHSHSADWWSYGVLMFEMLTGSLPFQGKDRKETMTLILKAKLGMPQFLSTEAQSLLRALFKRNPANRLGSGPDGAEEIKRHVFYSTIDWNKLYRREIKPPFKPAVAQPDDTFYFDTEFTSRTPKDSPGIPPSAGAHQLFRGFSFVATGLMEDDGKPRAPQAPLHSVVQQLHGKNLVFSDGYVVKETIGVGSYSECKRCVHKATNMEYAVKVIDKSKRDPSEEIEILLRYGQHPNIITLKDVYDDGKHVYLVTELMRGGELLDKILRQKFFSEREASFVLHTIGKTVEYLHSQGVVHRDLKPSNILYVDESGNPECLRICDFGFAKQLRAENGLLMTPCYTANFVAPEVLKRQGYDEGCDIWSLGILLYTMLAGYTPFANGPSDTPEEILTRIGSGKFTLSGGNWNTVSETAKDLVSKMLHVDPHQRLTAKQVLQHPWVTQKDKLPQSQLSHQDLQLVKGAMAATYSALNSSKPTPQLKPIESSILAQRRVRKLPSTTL
Chain of Platelet-derived growth factor receptor alpha (P16234 whole entry): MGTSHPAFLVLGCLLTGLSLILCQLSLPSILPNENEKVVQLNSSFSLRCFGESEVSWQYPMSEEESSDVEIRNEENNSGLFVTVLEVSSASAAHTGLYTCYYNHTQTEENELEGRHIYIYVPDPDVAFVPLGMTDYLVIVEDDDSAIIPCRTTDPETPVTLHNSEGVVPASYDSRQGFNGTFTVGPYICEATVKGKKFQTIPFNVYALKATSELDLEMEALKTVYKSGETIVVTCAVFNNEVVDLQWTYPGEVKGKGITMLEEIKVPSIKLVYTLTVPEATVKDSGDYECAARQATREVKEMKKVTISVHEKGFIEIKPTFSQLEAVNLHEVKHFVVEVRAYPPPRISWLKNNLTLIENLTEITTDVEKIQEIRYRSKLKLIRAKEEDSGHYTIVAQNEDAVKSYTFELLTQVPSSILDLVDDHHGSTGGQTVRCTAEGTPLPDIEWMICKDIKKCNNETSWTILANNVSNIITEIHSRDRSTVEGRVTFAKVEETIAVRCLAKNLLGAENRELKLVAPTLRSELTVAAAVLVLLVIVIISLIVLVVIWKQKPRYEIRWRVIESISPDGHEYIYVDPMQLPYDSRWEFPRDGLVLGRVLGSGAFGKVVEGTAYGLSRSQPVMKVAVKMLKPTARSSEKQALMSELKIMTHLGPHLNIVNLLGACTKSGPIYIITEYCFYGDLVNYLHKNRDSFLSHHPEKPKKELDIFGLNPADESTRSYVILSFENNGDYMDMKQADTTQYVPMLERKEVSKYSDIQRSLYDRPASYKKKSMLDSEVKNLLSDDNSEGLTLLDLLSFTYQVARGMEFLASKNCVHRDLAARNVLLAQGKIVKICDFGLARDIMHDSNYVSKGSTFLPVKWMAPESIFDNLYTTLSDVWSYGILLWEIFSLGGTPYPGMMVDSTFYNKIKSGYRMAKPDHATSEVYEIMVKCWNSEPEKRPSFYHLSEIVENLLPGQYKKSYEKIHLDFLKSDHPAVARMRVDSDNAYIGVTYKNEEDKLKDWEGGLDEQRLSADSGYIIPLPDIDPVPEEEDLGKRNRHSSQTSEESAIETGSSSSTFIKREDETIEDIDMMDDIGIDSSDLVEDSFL
Chain of Tyrosine-protein kinase CSK (Homo sapiens) (P41240 2-450 limits assumed): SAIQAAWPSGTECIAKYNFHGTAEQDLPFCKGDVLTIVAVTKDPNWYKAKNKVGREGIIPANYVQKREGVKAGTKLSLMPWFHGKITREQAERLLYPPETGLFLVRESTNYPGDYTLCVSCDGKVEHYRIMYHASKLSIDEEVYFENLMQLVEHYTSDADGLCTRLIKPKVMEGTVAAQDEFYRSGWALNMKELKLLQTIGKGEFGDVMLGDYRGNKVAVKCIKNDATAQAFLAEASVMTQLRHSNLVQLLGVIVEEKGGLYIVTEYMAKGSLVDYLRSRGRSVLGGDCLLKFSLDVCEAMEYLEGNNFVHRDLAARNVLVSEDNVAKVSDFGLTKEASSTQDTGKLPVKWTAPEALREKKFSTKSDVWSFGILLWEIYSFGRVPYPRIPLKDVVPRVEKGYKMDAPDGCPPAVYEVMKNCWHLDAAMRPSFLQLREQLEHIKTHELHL

Turning to `CCCc1cc(N2CCC(N)CC2)nc2sc(C(N)=O)c(N)c12`, the IC50 in test [1] was more than 7 µM; in test [3] it was 0.09 µM; in test [4], 0.041 µM; against Ephrin type-A receptor 3, 7 µM. Also, the result in test [2], in test [5] and in test [6] was inactive.
Consider `CCCc1cc(N2CCNCC2)nc2sc(C(N)=O)c(N)c12`, for which the IC50 in test [1] came to 0.3 µM; in test [3], 3.4 µM; in test [4], 0.12 µM; against Ephrin type-A receptor 3, 8 µM. In addition, the outcome in test [2], in test [5] and in test [6] was inactive.
`CCCc1cc(N2CCCC(O)C2)nc2sc(C(N)=O)c(N)c12` (stereo not drawn): the concentration for half-maximal inhibition (IC50) in test [1] was more than 7 µM; in test [3], 13.3 µM; in test [4], 0.57 µM; against Ephrin type-A receptor 3 it was more than 7 µM. Also, the outcome in test [2], in test [5] and in test [6] was inactive.
`CCCc1cc(N2CCC(O)CC2)nc2sc(C(N)=O)c(N)c12`: the half-maximal inhibitory concentration (IC50) in test [1] is more than 7 µM; in test [3] it was 11.2 µM; in test [4], 0.28 µM; against Ephrin type-A receptor 3, 9 µM. Besides, the outcome in test [2], in test [5] and in test [6] was inactive.
